The record followed here is patent US7414066B2, “Amide compounds and medications containing the same technical field” (Kowa Company Ltd., priority 1999, dated 2008).

`CSc1nccc(C)c1NC(=O)CCCCCSc1nc2ccccc2o1` [Compound No. 155, 6-(benzoxazol-2-ylthio)-N-(4-methyl-2-methylthio-3-pyridyl)hexanamide] returned a melting point of 122 to 124 °C.

`CSc1nc(C)ccc1NC(=O)CSc1nc2ccccc2s1` [Compound No. 461, 2-(benzothiazol-2-ylthio)-N-(6-methyl-2-methylthio-3-pyridyl)acetamide] displayed a melting point of 175 to 176 °C.

For the compound `CSc1nc(C)ccc1NC(=O)CSc1nc2ccccc2[nH]1` [Compound No. 471, 2-(benzimidazol-2-ylthio)-N-(6-methyl-2-methylthio-3-pyridyl)acetamide], the melting point was 192 to 193 °C (dec.).

The compound `CSc1cc(C)nc(SC)c1NC(=O)CCCCSc1nc2ccccc2o1` [Compound No. 784, 5-(benzoxazol-2-ylthio)-N-(2,4-bis(methylthio)-6-methyl-3-pyridyl)pentanamide] showed a melting point of 147 to 150 °C.

The compound `CSc1cc(C)nc(SC)c1NC(=O)CCCCCCSc1nc2ccccc2o1` [Compound No. 786, 7-(benzoxazol-2-ylthio)-N-[2,4-bis(methylthio)-6-methyl-3-pyridyl]heptanamide] displayed a melting point of 137 to 139 °C.

Compound `CSc1cc(C)nc(SC)c1NC(=O)CCCCCCCSc1nc2ccccc2o1` [Compound No. 787, 8-(benzoxazol-2-ylthio)-N-[2,4-bis(methylthio)-6-methyl-3-pyridyl]octanamide] yielded a melting point of 119 to 122 °C.

Turning to `CSc1cc(C)nc(SC)c1NC(=O)CSc1nc2ccccc2s1` [Compound No. 791, 2-(benzothiazol-2-ylthio)-N-[2,4-bis(methylthio)-6-methyl-3-pyridyl)acetamide], the melting point lay within 178 to 179 °C.

In turn, `CSc1cc(C)nc(SC)c1NC(=O)CCCCSc1nc2ccccc2s1` [Compound No. 794, 5-(benzothiazol-2-ylthio)-N-(2,4-bis(methylthio)-6-methyl-3-pyridyl)pentanamide] gave a melting point of 121 to 123 °C.

The compound `CSc1cc(C)nc(SC)c1NC(=O)CCCCCCCSc1nc2ccccc2s1` [Compound No. 797, 8-(benzthiazol-2-ylthio)-N-[2,4-bis(methylthio)-6-methyl-3-pyridyl)octanamide] displayed a melting point of 104 to 108 °C.

Compound `CSc1cc(C)nc(SC)c1NC(=O)CCCCSc1nc2ccccc2[nH]1` [Compound No. 804, 5-(benzimidazol-2-ylthio)-N-[2,4-bis(methylthio)-6-methyl-3-pyridyl]pentanamide] displayed a melting point of 176 to 177 °C.

With `CSc1cc(C)nc(SC)c1NC(=O)CCCCCCSc1nc2ccccc2[nH]1` [Compound No. 806, 7-(benzimidazol-2-ylthio)-N-[2,4-bis(methylthio)-6-methyl-3-pyridyl]heptanamide], the melting point fell in the range of 189 to 192 °C.

Compound `CSc1cc(C)nc(SC)c1NC(=O)CCCCCCCSc1nc2ccccc2[nH]1` [Compound No. 807, 8-(benzimidazol-2-ylthio)-N-[2,4-bis(methylthio)-6-methyl-3-pyridyl]octanamide] yielded a melting point of 186 to 187 °C.

Turning to `CCSc1cc(C)nc(SCC)c1NC(=O)CCCCSc1nc2ccccc2o1` [Compound No. 814, 5-(benzoxazol-2-ylthio)-N-[2,4-bis(ethylthio)-6-methyl-3-pyridyl]pentanamide], the melting point was in the range of 122 to 123 °C.

For the compound `CCSc1cc(C)nc(SCC)c1NC(=O)CCCCCCSc1nc2ccccc2o1` [Compound No. 816, 7-(benzoxazol-2-ylthio)-N-[2,4-bis(ethylthio)-6-methyl-3-pyridyl]heptanamide], the melting point fell in the range of 103 to 105 °C.

Regarding `CCSc1cc(C)nc(SCC)c1NC(=O)CCCCCCCSc1nc2ccccc2o1` [Compound No. 817, 8-(benzoxazol-2-ylthio)-N-[2,4-bis(ethylthio)-6-methyl-3-pyridyl]octanamide], the melting point fell in the range of 82 to 84 °C.

Take `CCSc1cc(C)nc(SCC)c1NC(=O)CCCSc1nc2ccccc2s1` [Compound No. 823, 4-(benzothiazol-2-ylthio)-N-[2,4-bis(ethylthio)-6-methyl-3-pyridyl]butanamide]: the melting point is 119 to 120 °C.

Compound `CCSc1cc(C)nc(SCC)c1NC(=O)CCCCSc1nc2ccccc2s1` [Compound No. 824, 5-(benzothiazol-2-ylthio)-N-[2,4-bis(ethylthio)-6-methyl-3-pyridyl]pentanamide] showed a melting point of 102 to 104 °C.

Compound `CCSc1cc(C)nc(SCC)c1NC(=O)CCCCCCSc1nc2ccccc2s1` [Compound No. 826, 7-(benzothiazol-2-ylthio)-N-[2,4-bis(ethylthio)-6-methyl-3-pyridyl]heptanamide] came in with a melting point of 114 to 116 °C.

In the case of `CCSc1cc(C)nc(SCC)c1NC(=O)CCCCCCCSc1nc2ccccc2s1` [Compound No. 827, 8-(benzothiazol-2-ylthio)-N-[2,4-bis(ethylthio)-6-methyl-3-pyridyl]octanamide], the melting point lay in the range of 94 to 96 °C.

For `CCSc1cc(C)nc(SCC)c1NC(=O)CCCSc1nc2ccccc2[nH]1` [Compound No. 833, 4-(benzimidazol-2-ylthio)-N-[2,4-bis(ethylthio)-6-methyl-3-pyridyl]butanamide], the melting point fell in the range of 160 to 161 °C.

With `CCSc1cc(C)nc(SCC)c1NC(=O)CCCCSc1nc2ccccc2[nH]1` [Compound No. 834, 5-(benzimidazol-2-ylthio)-N-[2,4-bis(ethylthio)-6-methyl-3-pyridyl]pentanamide], the melting point lay within 163 to 165 °C.

As to `CCSc1cc(C)nc(SCC)c1NC(=O)CCCCCCSc1nc2ccccc2[nH]1` [Compound No. 836, 7-(benzimidazol-2-ylthio)-N-[2,4-bis(ethylthio)-6-methyl-3-pyridyl]heptanamide], the melting point is 151 to 156 °C.

Turning to `CCSc1cc(C)nc(SCC)c1NC(=O)CCCCCCCSc1nc2ccccc2[nH]1` [Compound No. 837, 8-(benzoimidazol-2-ylthio)-N-[2,4-bis(ethylthio)-6-methyl-3-pyridyl]octanamide], the melting point lay in the range of 166 to 168 °C.

In turn, `Cc1cc(SC(C)C)c(NC(=O)CCCCSc2nc3ccccc3o2)c(SC(C)C)n1` [Compound No. 844, 5-(benzoxazol-2-ylthio)-N-[2,4-bis(isopropylthio)-6-methyl-3-pyridyl]pentanamide] yielded a melting point of 129 to 130 °C.

As for `Cc1cc(SC(C)C)c(NC(=O)CCCCCCSc2nc3ccccc3o2)c(SC(C)C)n1` [Compound No. 846, 7-(benzoxazol-2-ylthio)-N-[2,4-bis(isopropylthio)-6-methyl-3-pyridyl]heptanamide], the melting point lay in the range of 76 to 78 °C.

Turning to `Cc1cc(SC(C)C)c(NC(=O)CSc2nc3ccccc3s2)c(SC(C)C)n1` [Compound No. 851, 2-(benzothiazol-2-ylthio)-N-[2,4-bis(isopropylthio)-6-methyl-3-pyridyl]acetamide], the melting point lay in the range of 117 to 118 °C.

`Cc1cc(SC(C)C)c(NC(=O)CCCSc2nc3ccccc3s2)c(SC(C)C)n1` [Compound No. 853, 4-(benzothiazol-2-ylthio)-N-[2,4-bis(isopropylthio)-6-methyl-3-pyridyl]butanamide] gave a melting point of 116 to 117 °C.

As to `Cc1cc(SC(C)C)c(NC(=O)CCCCSc2nc3ccccc3s2)c(SC(C)C)n1` [Compound No. 854, 5-(benzothiazol-2-ylthio)-N-[2,4-bis(isopropylthio)-6-methyl-3-pyridyl]pentanamide], the melting point was 107 to 109 °C.

On to `Cc1cc(SC(C)C)c(NC(=O)CCCCCSc2nc3ccccc3s2)c(SC(C)C)n1` [Compound No. 855, 6-(benzothiazol-2-ylthio)-N-[2,4-bis(isopropylthio)-6-methyl-3-pyridyl]hexanamide], for which the melting point is 84 to 86 °C.

Turning to `Cc1cc(SC(C)C)c(NC(=O)CCCCCCSc2nc3ccccc3s2)c(SC(C)C)n1` [Compound No. 856, 7-(benzothiazol-2-ylthio)-N-[2,4-bis(isopropylthio)-6-methyl-3-pyridyl]heptanamide], the melting point lay within 74 to 76 °C.

On to `Cc1cc(SC(C)C)c(NC(=O)CCCCCCCSc2nc3ccccc3s2)c(SC(C)C)n1` [Compound No. 857, 8-(benzothiazol-2-ylthio)-N-[2,4-bis(isopropylthio)-6-methyl-3-pyridyl]octanamide], for which the melting point is 107 to 108 °C.

Compound `Cc1cc(SC(C)C)c(NC(=O)CSc2nc3ccccc3[nH]2)c(SC(C)C)n1` [Compound No. 861, 2-(benzimidazol-2-ylthio)-N-[2,4-bis(isopropylthio)-6-methyl-3-pyridyl]acetamide] showed a melting point of 223 to 224 °C.

The compound `Cc1cc(SC(C)C)c(NC(=O)CCCCSc2nc3ccccc3[nH]2)c(SC(C)C)n1` [Compound No. 864, 5-(benzimidazol-2-ylthio)-N-[2,4-bis(isopropylthio)-6-methyl-3-pyridyl]pentanamide] displayed a melting point of 175 to 176 °C.

In the case of `Cc1cc(SC(C)C)c(NC(=O)CCCCCSc2nc3ccccc3[nH]2)c(SC(C)C)n1` [Compound No. 865, 6-(benzimidazol-2-ylthio)-N-[2,4-bis(isopropylthio)-6-methyl-3-pyridyl]hexanamide], the melting point was 175 to 176 °C.

In turn, `Cc1cc(SC(C)C)c(NC(=O)CCCCCCSc2nc3ccccc3[nH]2)c(SC(C)C)n1` [Compound No. 866, 7-(benzoimidazol-2-ylthio)-N-[2,4-bis(isopropylthio)-6-methyl-3-pyridyl]heptanamide] displayed a melting point of 118 to 121 °C.

`Cc1cc(SC(C)C)c(NC(=O)CCCCCCCCSc2nc3ccccc3[nH]2)c(SC(C)C)n1` [Compound No. 868, 9-(benzimidazol-2-ylthio)-N-[2,4-bis(isopropylthio)-6-methyl-3-pyridyl]nonanamide] returned a melting point of 112 to 114 °C.

On to `CSc1nc(C)nc(SC)c1NC(=O)CCCCCSc1nc2ccccc2o1` [Compound No. 1145, 6-(benzoxazole-2-ylthio)-N-[2-methyl-4,6-bis(methylthio)-5-pyrimidyl)hexanamide], for which the melting point is 148 to 151 °C.

As for `CSc1cc(C)nc(SC)c1NC(=O)CCCCCSc1nc2ncccc2o1` [Compound No. 1237, 6-(oxazolo[4,5-b]pyridin-2-ylthio)-N-[2,4-bis(methylthio)-6-methyl-3-pyridyl]hexanamide], the melting point was 132 to 133 °C.

A word on the melting point: it is the temperature, or range, at which the solid turns liquid.
